Read-outs that look alike come from different tables or passages of the source.
What was measured:
[1] = target: T1, phospho p-38 alpha kinase (Homo sapiens, UniProt Q16539); experiment: P-38 alpha kinase assay (spectrophotometric, pyruvate kinase/lactate dehydrogenase coupled); format: biochemical
T1 construct: purchased Panvera
Description: In this assay, the oxidation of NADH was continuously measured spectrophometrically. […] The reaction was initiated by adding ATP. The absorption at 340 nm was monitored continuously for up to 4 hours at 30° C. on Polarstar Optima plate reader (BMG). The kinase activity (reaction rate) was calculated from the slope at the time frame from 1.5 h to 2 h.
For inhibition determinations, test compounds were incubated with the reaction mixture for ˜5 min before adding ATP to start the reaction. […] IC50 values were calculated from a series of % inhibition values determined at a range of concentrations of each inhibitor using Prism to process the data and fit inhibition curves. Generally, the rates obtained at the time frame of 1.5 h to 2 h were used for these calculations.

[2] = target: phosphorylated p-38-alpha kinase (Homo sapiens, UniProt Q16539); experiment: P-38 alpha kinase assay P1; format: biochemical; conditions: Method P1; 2 h pre-incubation before ATP
phosphorylated p-38-alpha kinase, sequence (Q16539 1-360 isoform Q16539-2): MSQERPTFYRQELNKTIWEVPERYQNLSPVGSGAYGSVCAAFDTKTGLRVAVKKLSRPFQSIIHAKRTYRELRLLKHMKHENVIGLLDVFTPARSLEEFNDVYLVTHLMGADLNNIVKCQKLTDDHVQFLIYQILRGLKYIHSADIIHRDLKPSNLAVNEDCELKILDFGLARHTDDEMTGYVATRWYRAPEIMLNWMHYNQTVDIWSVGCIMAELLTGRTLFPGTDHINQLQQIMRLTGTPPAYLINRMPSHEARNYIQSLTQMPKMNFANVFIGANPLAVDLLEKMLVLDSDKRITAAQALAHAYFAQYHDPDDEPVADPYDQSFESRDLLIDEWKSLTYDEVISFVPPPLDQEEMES

[3] = Table 5, assay not named, read-out: uM

T1 sequence (Q16539 whole entry): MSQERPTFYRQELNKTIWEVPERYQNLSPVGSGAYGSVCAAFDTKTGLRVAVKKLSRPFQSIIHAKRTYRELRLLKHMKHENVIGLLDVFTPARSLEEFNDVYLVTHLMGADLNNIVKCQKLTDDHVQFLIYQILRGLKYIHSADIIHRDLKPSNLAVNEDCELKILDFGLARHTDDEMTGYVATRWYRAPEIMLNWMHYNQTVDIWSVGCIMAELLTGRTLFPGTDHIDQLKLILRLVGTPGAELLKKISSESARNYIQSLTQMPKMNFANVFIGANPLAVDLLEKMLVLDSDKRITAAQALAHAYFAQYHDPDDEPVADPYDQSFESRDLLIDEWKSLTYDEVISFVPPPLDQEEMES

Row | IC50 [1, 3] [µM] | Compound | other results
1 | 1.65 | CN(C)C(=O)NCc1cccc(-n2nc(C(C)(C)C)cc2NC(=O)Nc2ccc(Cl)cc2)c1 [Example 388, 1-{3-t-butyl-1-[3-(3,3-dimethylureidomethyl)phenyl]-1H-pyrazol-5-yl}-3-(4-chlorophenyl)urea] | 
2 | 0.09 | CN1CCN(C(=O)NCc2cccc(-n3nc(C(C)(C)C)cc3NC(=O)Nc3cccc4ccccc34)c2)CC1 [Example 389, 1-{3-t-butyl-1-(3-[(1-methylpiperazine-4-carboxamido)methyl]phenyl}-1H-pyrazol-5-yl)-3-(naphthalen 1-yl)urea] | 
3 |  | CN1CCN(C(=O)NCc2cccc(-n3nc(C(C)(C)C)cc3NC(=O)Nc3ccc(Cl)cc3)c2)CC1 [Example 390, 1-{3-t-butyl-1-(3-[(1-methylpiperazine-4-carboxamido)methyl]phenyl}-1H-pyrazol-5-yl)-3-(4-chlorophenyl)urea] | % @ concentration, uM ([1]; Table 5, @ 0.1 uM): 24%; % @ concentration, uM ([1]; Table 5, @ 1 uM): 63%
4 | 0.91 | CC(C)(C)c1cc(NC(=O)Nc2ccc(Cl)cc2)n(-c2cccc(CN3C(=O)C(=O)N(c4ccccc4)C3=O)c2)n1 [Example 391, 1-{3-t-butyl-1-(3-[(2,4,5-trioxo-3-phenylimidazolidin-1-yl)methyl]phenyl)-1H-pyrazol-5-yl}-3-(4-chlorophenyl)urea] | 
5 |  | CC(C)(C)c1cc(NC(=O)Nc2ccc(Cl)cc2)n(-c2cccc(Cn3c(=O)[nH]n(-c4ccccc4)c3=O)c2)n1 [Example 392, 1-(3-t-butyl-1-{3-[(3,5-dioxo-1-phenyl-1,2,4-triazolidin-4-yl)methyl]phenyl}-1H-pyrazol-5-yl)-3-(4-chlorophenyl)urea] | % @ concentration, uM ([1]; Table 5, @ 0.1 uM): 75%; % @ concentration, uM ([1]; Table 5, @ 1 uM): 86%
6 | 0.4 | CCOC(=O)c1cccc(-n2nc(C(C)(C)C)cc2NC(=O)Nc2ccc(F)cc2)c1 [Example 393, ethyl 3-{3-t-butyl-5-[3-(4-fluorophenyl)ureido)-1H-pyrazol-1-yl}benzoate] | 
7 | 0.056 | CC(C)(C)c1cc(NC(=O)Nc2ccc(F)cc2)n(-c2cccc(Cn3c(=O)[nH]n(-c4ccccc4)c3=O)c2)n1 [Example 395, 1-{3-t-butyl-1-(3-[(3,5-dioxo-1-phenyl-1,2,4-triazolidin-4-yl)methyl]phenyl}-1H-pyrazol-5-yl)-3-(4-fluorophenyl)urea] | 
8 |  | CC(C)(C)c1cc(NC(=O)Nc2cccc(Cl)c2Cl)n(-c2cccc(Cn3c(=O)[nH]n(-c4ccccc4)c3=O)c2)n1 [Example 396, 1-(3-t-butyl-1-{3-[(3,5-dioxo-1-phenyl-1,2,4-triazolidin-4-yl)methyl]phenyl}-1H-pyrazol-5-yl)-3-(2,3-dichlorophenyl)urea] | % @ concentration, uM ([1]; Table 5, @ 0.1 uM): 3%; % @ concentration, uM ([1]; Table 5, @ 1 uM): 56%
9 | 0.04 | CCOC(=O)Cc1cccc(-n2nc(C(C)(C)C)cc2NC(=O)Nc2ccccc2)c1 [Example 397, ethyl 2-{3-[3-t-butyl-5-(3-phenylureido)-1H-pyrazol-1-yl]phenyl}acetate] | 
10 |  | CC(C)(C)c1cc(NC(=O)Nc2ccc(Cl)cc2)n(-c2cccc(CC(=O)O)c2)n1 [Example 399, 2-(3-{3-t-butyl-5-[3-(4-chlorophenyl)ureido]-1H-pyrazol-1-yl-}phenyl)acetic acid] | % @ concentration, uM ([1]; Table 5, @ 0.1 uM): 21%; % @ concentration, uM ([1]; Table 5, @ 1 uM): 74%
11 | 0.0134 | CC(C)(C)c1cc(NC(=O)Nc2cccc3ccccc23)n(-c2ccc3c(c2)CNCC3)n1 [Example 406, 1-[3-t-butyl-1-(1,2,3,4-tetrahydroisoquinolin-7-yl)-1H-pyrazol-5-yl]-3-(naphthalen-1-yl)urea] | 
12 | 0.0103 | CC(C)(C)c1cc(NC(=O)Nc2ccc(Cl)cc2)n(-c2ccc3c(c2)CNCC3)n1 [Example 407, 1-[3-t-butyl-1-(1,2,3,4-tetrahydroisoquinolin-7-yl)-1H-pyrazol-5-yl]-3-(4-chlorophenyl)urea] | 
13 | 0.116 | Cn1[nH]c(=O)n(Cc2cccc(-n3nc(C(C)(C)C)cc3NC(=O)Nc3cccc(Cl)c3Cl)c2)c1=O [Example 408, 1-{5-t-butyl-2-[3-(1-methyl-3,5-dioxo-[1,2,4)triazolidin-4-ylmethyl)-phenyl]-2H-pyrazol-3-yl}-3-(2,3-dichloro-phenyl)-urea] | 
14 | 0.008 | CC(C)c1cc(NC(=O)Nc2cccc3ccccc23)n(-c2ccc(C(O)C(F)(F)F)cc2)n1 (stereo not shown) [Example 411, 1-(1-(4-(2,2,2-trifluoro-1-hydroxyethyl)phenyl)-3-isopropyl-1H-pyrazol-5-yl)-3-(naphthalen-1-yl)urea] | 
15 |  | CC(C)(C)c1cc(NC(=O)Nc2cccc3ccccc23)n(-c2ccc(O)cc2)n1 [Example 415, 1-(3-t-butyl-1-(4-hydroxyphenyl)-1H-pyrazol-5-yl)-3-(naphthalen-1-yl)urea] | % @ concentration, uM ([1]; Table 5, @ 0.1 uM): 28%; % @ concentration, uM ([1]; Table 5, @ 1 uM): 69%
16 |  | COC(=O)COc1ccc(-n2nc(C(C)(C)C)cc2NC(=O)Nc2cccc3ccccc23)cc1 [Example 416, 1-(3-t-butyl-1-(4-(carbomethoxymethyl)oxyphenyl)-1H-pyrazol-5-yl)-3-(naphthalen-1-yl)urea] | % @ concentration, uM ([1]; Table 5, @ 0.1 uM): 67%; % @ concentration, uM ([1]; Table 5, @ 1 uM): 83%

Row | IC50 [1, 3] [µM] | Compound | other results
17 | 0.075 | CC(C)(C)c1cc(NC(=O)Nc2ccc(Cl)cc2)n(-c2ccc(OCc3ccccc3)cc2)n1 [Example 418, 1-(3-t-butyl-1-(4-(benzyloxy)phenyl)-1H-pyrazol-5-yl)-3-(4-chlorophenyl)urea] | 
18 | 0.0147 | CC(C)(C)c1cc(N)n(-c2ccc(O)cc2)n1 [Example 420, 4-(3-t-butyl-5-amino-1H-pyrazol-1-yl)phenol] | 
19 | 0.0147 | CC(C)(C)c1cc(NC(=O)Nc2ccc(Cl)cc2)n(-c2ccc(O)cc2)n1 [Example 421, 1-(3-t-butyl-1-(4 hydroxyphenyl)-1H-pyrazol-5-yl)-3-(4-chlorophenyl)urea] | 
20 | 0.013 | CCOC(=O)CCc1cccc(-n2nc(C(F)(F)F)cc2NC(=O)Nc2ccc(Cl)cc2)c1 [Example 426, 3-{3-(5-[3-(4-chloro-phenyl)-ureido]-3-trifluoromethyl-pyrazol-1-yl}-phenyl)-propionic acid ethyl ester] | 
21 | 0.819 | O=C(O)CCc1cccc(-n2nc(C(F)(F)F)cc2NC(=O)Nc2ccc(Cl)cc2)c1 [Example 427, 3-(3-(5-(3-(4 chlorophenyl)ureido)-3-(trifluoromethyl)-1H-pyrazol-1-yl)phenyl)propanoic acid] | 
22 | 0.14 | CCOC(=O)CCc1cccc(-n2nc(C)cc2NC(=O)Nc2ccc(Cl)cc2)c1 [Example 428, 3-(3-{5-[3-(4-chloro-phenyl)-ureido)-3-methyl-pyrazol-1-yl}-phenyl)-propionic acid ethyl ester] | 
23 | 1.07 | CC(C)c1cc(NC(=O)Nc2ccc(Cl)cc2)n(-c2cccc(CCC(=O)O)c2)n1 [Example 429, 3-(3-(5-(3-(4-chlorophenyl)ureido)-3-isopropyl-1H-pyrazol-1-yl)phenyl)propanoic acid] | 
24 | 0.942 | O=C(O)Cc1cccc(-n2nc(-c3ccccc3)cc2NC(=O)Nc2cccc(Cl)c2Cl)c1 [Example 430, 2-(3-(5-(3-(2,3-dichlorophenyl)ureido)-3-phenyl-1H-pyrazol-1-yl)phenyl)acetic acid] | 
25 |  | O=C(O)Cc1cccc(-n2nc(-c3cccc(F)c3)cc2NC(=O)Nc2cccc(Cl)c2Cl)c1 [Example 432, 2-(3-(5-(3-(2,3-dichlorophenyl)ureido)-3-(3-fluorophenyl)-1H-pyrazol-1-yl)phenyl)acetic acid] | % @ concentration, uM ([1]; Table 5, @ 1 uM): 9%; % @ concentration, uM ([1]; Table 5, @ 10 uM): 24%; IC50 [2]: 0.011 µM
26 |  | O=C(O)Cc1ccc(-n2nc(-c3cccc(F)c3)cc2NC(=O)Nc2cccc(Cl)c2Cl)cc1 [Example 439, 2-(4-(5-(3-(2,3-dichlorophenyl)ureido)-3-(3-fluorophenyl)-1H-pyrazol-1-yl)phenyl)acetic acid] | IC50 [2]: 0.013 µM
27 |  | NC(=O)Cc1cccc(-n2nc(-c3ccccc3)cc2NC(=O)Nc2cccc(Cl)c2Cl)c1 [Example 447, 1-(1-(3-(2-amino-2-oxoethyl)phenyl)-3-phenyl-1H-pyrazol-5-yl)-3-(2,3-dichlorophenyl)urea] | IC50 [2]: 0.011 µM
28 | 0.01 | CN1CCN(C(=O)Cc2ccc(-n3nc(-c4ccccc4)cc3NC(=O)Nc3cccc(Cl)c3Cl)cc2)CC1 [Example 475, 1-(2,3-dichlorophenyl)-3-(1-(4-(2-(4-methylpiperazin-1-yl)-2-oxoethyl)phenyl)-3-phenyl-1H-pyrazol-5-yl)urea] | 
29 |  | O=C(Nc1cccc(Cl)c1Cl)Nc1cc(-c2ccccc2F)nn1-c1ccc(CC(=O)N2CC[C@H](O)C2)cc1 [Example 479, 1-(2,3-dichlorophenyl)-3-(3-(2-fluorophenyl)-1-(4-(2-((S)-3-hydroxypyrrolidin-1-yl)-2-oxoethyl)phenyl)-1H-pyrazol-5-yl)urea] | IC50 [2]: 0.037 µM
30 | 0.057 | O=C(Nc1cccc(Cl)c1Cl)Nc1cc(-c2cccs2)nn1-c1cccc(CO)c1 [Example 486, 1-(2,3-dichlorophenyl)-3-(1-(3-(hydroxymethyl)phenyl)-3-(thiophen-2-yl)-1H-pyrazol-5-yl)urea] | 
31 | 0.34 | CC(Cc1cccc(-n2nc(-c3cccs3)cc2NC(=O)Nc2cccc(Cl)c2Cl)c1)C(=O)O (stereo not shown) [Example 490, 3-(3-(5-(3-(2,3-dichlorophenyl)ureido)-3-(thiophen-2-yl)-1H-pyrazol-1-yl)phenyl)-2-methylpropanoic acid] | 
32 |  | CC(C)(C)c1cc(NC(=O)Nc2cccc3ccccc23)n(-c2cccc(CO)c2)n1 [Example D, 1-{3-t-butyl-1-[3-(hydroxymethyl)phenyl]-1H-pyrazol-5-yl}-3-(naphthalen-1-yl)urea] | IC50 ([1]; Table 2, rates at […] to 2 h, read-out: IC50): 0.179 µM
